# Reference: patent publication US20160312284A1, “SELECT SINGLE NUCLEOTIDE POLYMORPHISMS PREDICTIVE OF RESPONSE TO GLATIRAMER ACETATE” (Teva Pharmaceutical Industries, Ltd., priority 2015, published 2016)
# What was measured:
# [1] = system: genotyped patients of the GALA and FORTE cohorts; experiment: Combined GALA and FORTE cohorts: patient responses predicted by preliminary predictive model (model 3, threshold 0.71); type: in vivo, human
# Procedure: A predictive model was generated based on the 11 SNPs shown in tables 32 and 33 and the two Clinical co-variants shown in table 23.
# Receiver Operating Characteristic (ROC) analysis was performed using the actual value (case or control) and predicted value for each sample from the multi-marker regression model (FIG. 1). For these preliminary analyses, two risk groups were defined using the predicted values from the multi-marker regression model. The predictive threshold value was set at 0.71 (termed “model 3”) based on a variety of factors after consultation with the Teva team and Teva MS clinical experts.
# Ultimately, a threshold that best differentiated between responders and non-responders (minimum positive predictive value of 90% or higher) (FIG. 2), while maximizing the number of predicted responders (predicted responders >60%) (FIG. 3) was selected. This threshold also coincided with the lowest p-value of all the thresholds examined (Chi square p-value 6.1×10^−46, odds ratio 19.9) (FIG. 4). The positive predictive value (% of all predicted responders to be true responders) was 91.1%, sensitivity (% of all true responders detected) was 80.2%; specificity (% of all true non-responders classified as non-responders) was 83.1%; and the negative predictive value ([…]) was 65.9%.
# While 40% of patients were classified as “predicted non-responders” with an overall response rate of 34% (FIG. 5).
# [2] = system: Relapsing-Remitting Multiple Sclerosis (RR-MS) patients; experiment: FORTE phase 3 trial (two doses of GA): response categories and ARR by predictive model; type: in vivo, human
# Source text: As used herein, “FORTE” is a phase 3 clinical trial entitled “Clinical Trial Comparing Treatment of Relapsing-Remitting Multiple Sclerosis (RR-MS) With Two Doses of Glatiramer Acetate (GA).” The FORTE trial has the ClinicalTrials.gov Identifier NCT00337779 and additional information, including study results can be found at clinicaltrials.gov/ct2/show/NCT00337779.
# (§1) Response definitions were received from patients from two large glatiramer acetate clinical trial cohorts (GALA, FORTE) and patients were categorized as responder, non-responder, extreme-responder, or extreme non-responder according to the criteria set forth in Table 1.
# (§2) To identify genetic markers associated with high response to Copaxone® comprising the following characteristics: (1) high response as measured by ARR reductions, (2) predictive, not prognostic, markers: associated with response only in Copaxone®-treated patients, and not in the placebo group, (3) markers that are confirmed in an independent cohort, and (4) a subset of GALA and FORTE studies' patients with clarly defined response phenotypes (high responders versus low responders) (FIG. 6) Patient DNA samples were genotyped for 4.3 million genetic variants (Illumina HumanOmni5 array).
# (§3) Regression analysis was applied, with the threshold for distinguishing responders from non-responders was selected by analysis of receiver-operator curves. Intermediate responders were genotyped by either Illumina 5M array or focused taqman-based SNP genotyping and Sanger sequencing.
# [3] = system: Subjects With Relapsing-Remitting Multiple Sclerosis (RRMS); experiment: GALA phase 3 trial (GA 40 mg three times a week vs placebo): response categories and ARR by predictive model; type: in vivo, human
# Procedure: As used herein, “GALA” is a phase 3 clinical trial entitled “A Study in Subjects With Relapsing-Remitting Multiple Sclerosis (RRMS) to Assess the Efficacy, Safety and Tolerability of Glatiramer Acetate (GA) Injection 40 mg Administered Three Times a Week Compared to Placebo (GALA).” The GALA trial has the ClinicalTrials.gov Identifier NCT01067521, and additional information about the trial can be found at clinicaltrials.gov/ct2/show/NCT01067521.
# as §1, §2, §3
# RRMS subjects = details: largest controlled study, GA 20 mg; cited from earlier work
# [4] = change in ARR < -1 and new T2 lesions = 0 and relapse free
# [5] = change in ARR >= 0 and new T2 lesions >= 1
# [6] = change in ARR from previous 2 years < -1
# [7] = change in ARR from previous 2 years >= 0
substance,measurement,setting,value
Glatiramer acetate,"improvement in response rate, predicted responders vs overall cohort",[1]; 68% vs. 91%,34%
same,"improved response rate, predicted responders vs predicted non-responders",[1]; P<10^-40,2.7 fold
same,"ARR reduced (improved), predicted responders vs overall patient cohort","[1]; human, in vivo",60%
same,"nrelapse reduced (improved), predicted responders vs overall patient cohort","[1]; human, in vivo",58%
same,"EDSS progression delayed (improved), predicted responders vs predicted non-responders",[1]; p-value 0.00095,72%
same,"T1 enhancing lesions at month 12 reduced (improved), predicted responders vs predicted non-responders",[1]; p-value 0.043,47%
same,"reduced EDSS progression, predicted responders vs overall cohort",[1]; p-value 0.08,49%
same,"ARR reduced (improved), predicted responders vs predicted non-responders",[1]; p-value 2.2×10^-25,80%
same,"nrelapse reduced (improved), predicted responders vs predicted non-responders",[1]; p-value 7.70×10^-32,78%
same,overall response rate,[1]; predicted non-responders (40% of patients),34%
same,Extreme Responders (% of cohort),[2]; [4],(16%)
same,Extreme Non-Responders (% of cohort),[2]; [5],(6%)
same,Responders (% of cohort),[2]; [6],(36%)
same,Non-Responders (% of cohort),[2]; [7],(11%)
same,Extreme Responders (% of cohort),[3]; [4],(8.5%)
same,Extreme Non-Responders (% of cohort),[3]; [5],(10%)
same,Responders (% of cohort),[3]; [6],(26%)
same,Non-Responders (% of cohort),[3]; [7],(16%)
same,relapse rate reduced vs placebo,RRMS subjects,32%
